The values below come from patent publication US20250129070A1, “BIFUNCTIONAL ANDROGEN RECEPTOR COMPOUNDS” (priority 2023, published 2025).

For one assay, the system named is AR / CBP ternary complex. In words: Ternary complex formation assay (sandwich ELISA, AR capture / CBP detection) in VCaP cell lysates. To be noted: 1.5 hours treatment, sandwich ELISA (AR capture, CBP or p300 detection). Format: cell-based. The essentials:
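VCaP cells (50K/well, 5% charcoal-stripped FBS, ≥3 days) treated with bifunctional compound for 1.5 h, then lysed 30 min at 4 °C. AR captured on anti-AR (AR 441) plates; bound CBP or p300 detected by rabbit mAb plus HRP secondary. QuantaRed chemifluorescence read at ex 570/em 585, immediately and at 5 and 15 min.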
In general terms: ELISA stands for enzyme-linked immunosorbent assay.

In the next assay the test system is VCaP cells. In words: VCaP growth inhibition assay. The class given is cell-based. To be noted: 30 pM R1881, 9 days, CTG. Here is the method: VCaP cells (ATCC Cat #CRL-2876) are plated at 1×10^4 cells per well of a white plastic 96-well cluster plate (Thermo Scientific Nunc Cat #165306) in 100 uL phenol red-free DMEM (Gibco Cat #21063-029) media with 5% CSS (Omega Scientific Cat #FB-04). Cluster plates are returned to the incubator (37*C/5% CO2) for 72 hours prior to treatment. Just prior to treatment, 100 μL of phenol red-free DMEM/5% CSS and […] R1881 (Sigma Cat #R0908-10 mg) was added to each well of the cluster plates (Final R1881 concentration=30 pM). Compounds (200×) were added to each well in a volume of 1 uL, with serial dilutions (1:5) from 20 uM to 2 pM (final concentrations in well are 100 nM to 10 fM). Cluster plates are returned to the incubator for 9 days.
After the 9-day treatment period, media was removed from the cluster plates by inversion and 100 uL room temperature CTG reagent (Promega Cat #G7573) is added to each well. The cluster plates are placed on a shaker and incubated at room temperature for 20 minutes. Following this shaking/incubation, cluster plates are read on a luminometer (BMG ClarioStar). IC50 values are obtained by graphing the RLU data vs. compound concentration with nonlinear regression 4-parameter logistic curves (GraphPad Prism).

Take `CC(=O)N1CCc2c(c(N3CCCc4cc(-c5cnn(C)c5)c(C(F)F)cc43)nn2C2CCN(c3ncc(C(=O)NC4C(C)(C)C(Oc5ccc(C#N)c(Cl)c5)C4(C)C)cn3)CC2)C1` (stereo not shown) [Compound 95, 2-[4-[5-acetyl-3-[7-(difluoromethyl)-6-(1-methylpyrazol-4-yl)-3,4-dihydro-2H-quinolin-1-yl]-6,7-dihydro-4H-pyrazolo[4,3-c]pyridin-1-yl]-1-piperidyl]-N-[3-(3-chloro-4-cyano-phenoxy)-2,2,4,4-tetramethyl-cyclobutyl]pyrimidine-5-carboxamide]: in the assay with AR / CBP ternary complex, the EC50 (commonly the concentration at which the effect is half-maximal) was in the range of 1 to 10 nM. Further, the IC50 (usually the point on the concentration scale where inhibition reaches its midpoint) with VCaP cells is 0.1 to 1 nM.
For `CC(=O)N1CCc2c(c(N3CCCc4cc(-c5cnn(C)c5)c(C(F)F)cc43)nn2C2CCC3(CC2)CCN(CC2CN(c4ccc(C(=O)NC5C(C)(C)C(Oc6ccc(C#N)c(Cl)c6)C5(C)C)nn4)C2)CC3)C1` (stereo not shown) [Compound 209, 6-[3-[[9-[5-acetyl-3-[7-(difluoromethyl)-6-(1-methylpyrazol-4-yl)-3,4-dihydro-2H-quinolin-1-yl]-6,7-dihydro-4H-pyrazolo[4,3-c]pyridin-1-yl]-3-azaspiro[5.5]undecan-3-yl]methyl]azetidin-1-yl]-N-[3-(3-chloro-4-cyano-phenoxy)-2,2,4,4-tetramethyl-cyclobutyl]pyridazine-3-carboxamide], in that order: 10 to 100 nM and no more than 0.1 nM.
As for `CC(=O)N1CCc2c(c(N3CCCc4cc(-c5cnn(C)c5)c(C(F)F)cc43)nn2C2CCN(C3CC4(CCC(Oc5ncc(C(=O)NC6C(C)(C)C(Oc7ccc(C#N)c(Cl)c7)C6(C)C)cn5)CC4)C3)CC2)C1` (stereo not shown) [Compound 395, 2-[2-[4-[5-acetyl-3-[7-(difluoromethyl)-6-(1-methylpyrazol-4-yl)-3,4-dihydro-2H-quinolin-1-yl]-6,7-dihydro-4H-pyrazolo[4,3-c]pyridin-1-yl]-1-piperidyl]spiro[3.5]nonan-7-yl]oxy-N-[3-(3-chloro-4-cyano-phenoxy)-2,2,4,4-tetramethyl-cyclobutyl]pyrimidine-5-carboxamide], the concentration giving a half-maximal response (EC50) in the assay on AR / CBP ternary complex was less than 1 nM. The compound further showed a half-inhibitory concentration (IC50) in the assay with VCaP cells of 0.1 to 1 nM.
For `COc1cc(OC2C(C)(C)C(NC(=O)c3ccc(N4CCC(N5CC6(CCC(n7nc(N8CCCc9cc(-c%10cnn(C)c%10)c(C(F)F)cc98)c8c7CCN(C(C)=O)C8)CC6)C5)CC4)cc3)C2(C)C)ccc1C#N` (stereo not shown) [Compound 372, 4-[4-[7-[5-acetyl-3-[7-(difluoromethyl)-6-(1-methylpyrazol-4-yl)-3,4-dihydro-2H-quinolin-1-yl]-6,7-dihydro-4H-pyrazolo[4,3-c]pyridin-1-yl]-2-azaspiro[3.5]nonan-2-yl]-1-piperidyl]-N-[3-(4-cyano-3-methoxy-phenoxy)-2,2,4,4-tetramethyl-cyclobutyl]benzamide], in that order: less than 1 nM and no more than 0.1 nM.
For `COc1cc(OC2C(C)(C)C(NC(=O)c3ccc(N4CC5(CC(N6CCC(n7nc(N8CCCc9cc(-c%10cnn(C)c%10)c(C(F)F)cc98)c8c7CCN(C(C)=O)C8)CC6)C5)C4)cc3)C2(C)C)ccc1C#N` (stereo not shown) [Compound 349, 4-[6-[4-[5-acetyl-3-[7-(difluoromethyl)-6-(1-methylpyrazol-4-yl)-3,4-dihydro-2H-quinolin-1-yl]-6,7-dihydro-4H-pyrazolo[4,3-c]pyridin-1-yl]-1-piperidyl]-2-azaspiro[3.3]heptan-2-yl]-N-[3-(4-cyano-3-methoxy-phenoxy)-2,2,4,4-tetramethyl-cyclobutyl]benzamide], in that order: less than 1 nM and no more than 0.1 nM.
For `CC(=O)N1CCc2c(c(N3CCCc4cc(-c5cnn(C)c5)c(C(F)F)cc43)nn2C2CCN(CC3CCN(c4ncc(C(=O)NC5C(C)(C)C(Oc6ccc(C#N)c(Cl)c6)C5(C)C)nn4)CC3)CC2)C1` (stereo not shown) [Compound 152], in that order: greater than 100 nM and no more than 0.1 nM.
`CC(=O)N1CCc2c(c(N3CCCc4cc(-c5cnn(C)c5)c(C(F)F)cc43)nn2C2CCN(CCc3ncc(C(=O)NC4C(C)(C)C(Oc5ccc(C#N)c(Cl)c5)C4(C)C)cn3)CC2)C1` (stereo not shown) [Compound 92, 2-[2-[4-[5-acetyl-3-[7-(difluoromethyl)-6-(1-methylpyrazol-4-yl)-3,4-dihydro-2H-quinolin-1-yl]-6,7-dihydro-4H-pyrazolo[4,3-c]pyridin-1-yl]-1-piperidyl]ethyl]-N-[3-(3-chloro-4-cyano-phenoxy)-2,2,4,4-tetramethyl-cyclobutyl]pyrimidine-5-carboxamide] came in with an EC50 with AR / CBP ternary complex greater than 100 nM. For the same compound, in the assay with VCaP cells, the IC50 is greater than 100 nM.
With `COc1cc(OC2C(C)(C)C(NC(=O)c3ccc(N4CC(N5CCCC6(CCC(n7nc(N8CCCc9cc(-c%10cnn(C)c%10)c(C(F)F)cc98)c8c7CCN(C(C)=O)C8)CC6)C5)C4)cc3)C2(C)C)ccc1C#N` (stereo not shown) [Compound 415, 4-[3-[9-[5-acetyl-3-[7-(difluoromethyl)-6-(1-methylpyrazol-4-yl)-3,4-dihydro-2H-quinolin-1-yl]-6,7-dihydro-4Hpyrazolo[4,3-c]pyridin-1-yl]-2-azaspiro[5.5]undecan-2-yl]azetidin-1-yl]-N-[3-(4-cyano-3-methoxy-phenoxy)-2,2,4,4-tetramethyl-cyclobutyl]benzamide], the EC50 in the assay on AR / CBP ternary complex lay in the range of 1 to 10 nM. This compound also registered a 50% inhibitory concentration (IC50) in the assay on VCaP cells of 1 to 100 nM.
`COc1cc(OC2C(C)(C)C(NC(=O)c3ccc(N4CCC(N5CCC6(CCC(n7nc(N8CCCc9cc(-c%10cnn(C)c%10)c(C(F)F)cc98)c8c7CCN(C(C)=O)C8)CC6)CC5)CC4)cc3)C2(C)C)ccc1C#N` (stereo not shown) [Compound 300, 4-[4-[9-[5-acetyl-3-[7-(difluoromethyl)-6-(1-methylpyrazol-4-yl)-3,4-dihydro-2H-quinolin-1-yl]-6,7-dihydro-4H-pyrazolo[4,3-c]pyridin-1-yl]-3-azaspiro[5.5]undecan-3-yl]-1-piperidyl]-N-[3-(4-cyano-3-methoxy-phenoxy)-2,2,4,4-tetramethyl-cyclobutyl]benzamide] came in with an IC50 with VCaP cells of no more than 0.1 nM.
Still for that read-out and setting: the same measure for `CC(=O)N1CCc2c(c(N3CCCc4cc(-c5cnn(C)c5)c(C(F)F)cc43)nn2CCN2CCN(c3ncc(C(=O)NC4C(C)(C)C(Oc5ccc(C#N)c(Cl)c5)C4(C)C)cn3)CC2)C1` (stereo not shown) [Compound 52, 2-[4-[2-[5-acetyl-3-[7-(difluoromethyl)-6-(1-methylpyrazol-4-yl)-3,4-dihydro-2H-quinolin-1-yl]-6,7-dihydro-4H-pyrazolo[4,3-c]pyridin-1-yl]ethyl]piperazin-1-yl]-N-[3-(3-chloro-4-cyano-phenoxy)-2,2,4,4-tetramethyl-cyclobutyl]pyrimidine-5-carboxamide]: 0.1 to 1 nM.
`CC(=O)N1CCc2c(c(Nc3ccc(-c4cnn(C)c4)cc3F)nn2C2CN(C(=O)CN3CCN(c4ncc(C(=O)NC5C(C)(C)C(Oc6ccc(C#N)c(Cl)c6)C5(C)C)cn4)CC3)C2)C1` (stereo not shown) [Compound 165, 2-[4-[2-[3-[5-acetyl-3-[2-fluoro-4-(1-methylpyrazol-4-yl)anilino]-6,7-dihydro-4H-pyrazolo[4,3-c]pyridin-1-yl]azetidin-1-yl]-2-oxo-ethyl]piperazin-1-yl]-N-[3-(3-chloro-4-cyano-phenoxy)-2,2,4,4-tetramethyl-cyclobutyl]pyrimidine-5-carboxamide] returned an IC50 in the assay with VCaP cells of no more than 0.1 nM.
Still for that read-out and setting: next, `CC(=O)N1CCc2c(c(Nc3ccc(-c4cnn(C)c4)cc3F)nn2CCOC2CCN(c3ncc(C(=O)NC4C(C)(C)C(Oc5ccc(C#N)c(Cl)c5)C4(C)C)cn3)CC2)C1` (stereo not shown) [Compound 2, 2-[4-[2-[5-acetyl-3-[2-fluoro-4-(1-methylpyrazol-4-yl)anilino]-6,7-dihydro-4H-pyrazolo[4,3-c]pyridin-1-yl]ethoxy]-1-piperidyl]-N-[3-(3-chloro-4-cyano-phenoxy)-2,2,4,4-tetramethyl-cyclobutyl]pyrimidine-5-carboxamide]: 1 to 100 nM; `CC(=O)N1CCc2c(c(N3CCCc4cc(-c5cnn(C)c5)c(C(F)F)cc43)nn2C2CCN(C3CCN(c4ccc5c(n4)CN(C4C(C)(C)C(Oc6ccc(C#N)c(Cl)c6)C4(C)C)C5=O)CC3)CC2)C1` (stereo not shown) [Compound 297, 4-[3-[2-[4-[4-[5-acetyl-3-[7-(difluoromethyl)-6-(1-methylpyrazol-4-yl)-3,4-dihydro-2H-quinolin-1-yl]-6,7-dihydro-4H-pyrazolo[4,3-c]pyridin-1-yl]-1-piperidyl]-1-piperidyl]-5-oxo-7H-pyrrolo[3,4-b]pyridin-6-yl]-2,2,4,4-tetramethyl-cyclobutoxy]-2-chloro-benzonitrile]: 1 to 100 nM; `COc1cc(OC2C(C)(C)C(NC(=O)c3ccc(N4CC(N5CCC6(CCC(n7nc(N8CCCc9cc(-c%10cnn(C)c%10)c(C(F)F)cc98)c8c7CCN(C(C)=O)C8)CC6)CC5)C4)cc3)C2(C)C)ccc1C#N` (stereo not shown) [Compound 301, 4-[3-[9-[5-acetyl-3-[7-(difluoromethyl)-6-(1-methylpyrazol-4-yl)-3,4-dihydro-2H-quinolin-1-yl]-6,7-dihydro-4H-pyrazolo[4,3-c]pyridin-1-yl]-3-azaspiro[5.5]undecan-3-yl]azetidin-1-yl]-N-[3-(4-cyano-3-methoxy-phenoxy)-2,2,4,4-tetramethyl-cyclobutyl]benzamide]: no more than 0.1 nM.
